Assay results taken from PMC10531346, “Structural Similarities and Overlapping Activities among Dihydroflavonol 4-Reductase, Flavanone 4-Reductase, and Anthocyanidin Reductase Offer Metabolic Flexibility in the Flavonoid Pathway” (International Journal of Molecular Sciences, 2023).
“And” between values parts separate entries of the source, which are not always exact repeats. Equal entries are not always repeated. Where two headings read alike, the source gives them in different places.

What was measured:
PvDFRa [1] = biological target: T1, PvDFRa (Panicum virgatum, UniProt A0A8T0SQV2); format: biochemical
Protocol: The referenced Vmax and Km values were used to make a nonlinear regression. […] Five µL of the reaction was injected into a reversed-phase HPLC column XBridge Peptide BEH C18 (Waters, Milford, MA, USA). Acetonitrile:water was used as the mobile phase, using a gradient in the concentration of acetonitrile from 5% (v/v) to 100%.

PvDFRa [2] = biological target: T1, PvDFRa; experiment: Isothermal titration calorimetry, PvDFRa; format: binding; details: for ∆H / ∆S: 298 K
Protocol: In order to obtain thermodynamic parameters for the association, isothermal titration calorimetry (ITC) for PvDFRa was performed (Figure S8, Table 2).
Isothermal Titration Calorimetry: Purified PvDFR was dialyzed to a buffer containing 50 mM Bis-Tris, 50 mM Tricine (pH 6.5), 200 mM NaCl and 2.5% (v/v) glycerol. Substrates were dissolved in the same buffer used for enzyme dialysis. Analysis was conducted utilizing a Microcal ITC 200 (Malvern). […] A total of 22 injections were made, each with a volume of 2 uL. Data analysis was conducted utilizing Origin Software 7 and modeled to the appropriate nonlinear regression.

SbFNR1 [3] = biological target: T2, SbFNR1 (Sorghum bicolor, UniProt C5YGL7); experiment: Isothermal titration calorimetry, SbFNR1; format: binding; details: ITC
SbFNR1 [4] = biological target: T2, SbFNR1; experiment: SbFNR1 activity assay (dihydroflavonols, flavanones, anthocyanidins); format: biochemical; details: for activity of SbFNR1 against the substrate: in words
SbFNR2 = SbFNR2 activity assay (dihydroflavonols, flavanones, anthocyanidins); format: biochemical, Sorghum bicolor; details: for activity of SbFNR2 against the substrate: in words; for efficiency relative to the activity of SbANR: anthocyanidin reduction
SbANR = SbANR activity assay (dihydroflavonols, flavanones, anthocyanidins); format: biochemical, Sorghum bicolor; details: in words
PvDFRa WT = PvDFRa WT (Panicum virgatum, UniProt A0A8T0SQV2); experiment: Enzyme kinetic assay, wild-type PvDFRa; format: biochemical; details: KI much greater than Km, could not be quantified
Protocol: (§1) Kinetic Assays of PvDFRa, SbDFR3, mutant PvDFRa, and SbFNRs: DFR was purified to the same purity as used in crystallization. Enzymatic assay followed the methodology previously reported with small changes. A solution of 0.1 M potassium phosphate at pH 7.0 was utilized, and substrate concentration was varied from 5 µM to 800 µM. The reaction was initiated with 0.05 mg enzyme in a total reaction volume of 200 µL. […] The reaction proceeded for 15 min. at 25 °C and was terminated by the addition of 600 µL 95:5 (v/v) n-butanol:HCl. […] The reactions were centrifuged for 15 min. at 14,000× g and the supernatant was used to determine product concentrations with a GENESYS™ 10S UV-Vis Spectrophotometer (Thermo Scientific, Waltham, MA, USA). The absorbances of cyanidin delphinidin and pelargonidin were measured at 550, 550, and 528 nm, respectively. The concentrations were determined based on calibrations with reference compounds (Figure S12). […] Data analysis was conducted utilizing GraphPad Prism 8.0.2 using linear regression to model the appropriate model. Error in each data point is shown utilizing the standard deviation.

PvDFRa T143S = PvDFRa T143S (Panicum virgatum, UniProt A0A8T0SQV2, T143S); experiment: Enzyme kinetic assay, PvDFRa T143S mutant; format: biochemical; details: relative to wild-type PvDFRa
Protocol: (§2) Site-directed mutagenesis was conducted using primers generated with the QuikChange Primer Design (Agilent Santa Clara, CA USA).
as §1

PvDFRa Q242A = PvDFRa Q242A (Panicum virgatum, UniProt A0A8T0SQV2, Q242A); experiment: Enzyme kinetic assay, PvDFRa Q242A mutant; format: biochemical; details: for kcat: NADPH 2 mM
Protocol: as §2, §1

SbDFR3 [5] = biological target: T3, SbDFR3 (Sorghum bicolor, UniProt C5XVF8); experiment: Enzyme kinetic assay, SbDFR3; details: NADPH 2 mM
Protocol: as §1

[6] = system: O=C1c2c(O)cc(O)cc2OC(c2ccc(O)c(O)c2)[C@H]1O; experiment: purified protein, by the assay type; details: other: NADPH 2 mM; pH 7.0
[7] = system: O=C1c2c(O)cc(O)cc2O[C@H](c2cc(O)c(O)c(O)c2)[C@H]1O; experiment: purified protein, by the assay type; details: other: NADPH 2 mM; pH 7.0
[8] = system: O=C1c2c(O)cc(O)cc2O[C@H](c2ccc(O)cc2)[C@H]1O; experiment: purified protein, by the assay type; details: other: NADPH 2 mM; pH 7.0
PvDFRa [9] = biological target: T1, PvDFRa; experiment: PvDFRa activity against anthocyanidins (ANR activity); format: biochemical; details: anthocyanidin reduction
Protocol: (§3) To measure any overlapping specificity among FNR, DFR, and ANR for anthocyanidins, their activity against cyanidin, pelargonidin, and delphinidin were assayed.
(§4) LC-MS was used to analyze the various flavonoids using a Waters Xevo TQ-MS mass spectrometer interfaced with a Waters Acquity UPLC. […] The chromatographic conditions used were based on. The mobile phase used was a binary gradient of water with 0.1% (v/v) formic acid (Solvent A) and methanol with 0.1% formic acid (Solvent B). The solvent flow rate was 0.2 mL min^-1. and the initial solvent composition was 20% B/80% A and was constant for the first minute following sample injection. Gradient elution was accomplished by increasing the ratio of solvent B to solvent A from 20:80 to 65:35 over 10 min. using a linear gradient, and then increased to 100:0 over the next 4 min. The composition was maintained at 100% B for 5 min., returned to 80%A/20%B over the next 3 min., and held at that ratio for the next 3 min. […]
(§5) Appropriate daughter ions to be used for multiple reaction monitoring (MRM) of (-)-epicatechin were identified by infusing standard and recording spectra. The optimum cone voltage and collision energy of epicatechin were also determined in these infusion experiments. […]

SbDFR3 [10] = biological target: T3, SbDFR3; experiment: SbDFR3 activity against anthocyanidins (ANR activity); format: biochemical; details: anthocyanidin reduction
Protocol: as §3, §4, §5

Molecule: O=c1c(O)c(-c2ccc(O)c(O)c2)oc2cc(O)cc(O)c12 [quercetin]
- substrate of PvDFRa or not (PvDFRa [1]; 500 µM quercetin, 2 mM NADPH, 30 min, HPLC): not a substrate
- type of inhibition of PvDFRa (PvDFRa [1]; DHM as substrate): noncompetitive inhibition
- Vmax (PvDFRa [1]; DHM as substrate, 75 μM quercetin): 4.193 min⁻¹
- Vmax (PvDFRa [1]; DHM as substrate, 150 μM quercetin): 3.545 min⁻¹

Molecule: NADP^+
- NADP^+-binding affinity relative to affinity for DHQ (PvDFRa [2]; ITC): roughly 100 times
- ∆H (PvDFRa [2]; ITC): -9.41 ± 0.15 kcal/mol
- ∆S (PvDFRa [2]; ITC): −0.226 Cal mol^−1 K^−1
- ∆H (SbFNR1 [3]): -1.12 ± 0.72 kcal/mol
- ∆S (SbFNR1 [3]): −15.4 Cal mol^−1 K^−1

Molecule: Oc1cc(O)c2cc(O)c(-c3cc(O)c(O)c(O)c3)[o+]c2c1 [delphinidin]
- activity of SbFNR1 against the substrate (SbFNR1 [4]): neither SbFNR1 nor SbFNR2 displayed any activity
- activity of SbFNR2 against the substrate (SbFNR2): neither SbFNR1 nor SbFNR2 displayed any activity
- activity of SbANR against the substrate (SbANR): showed activity

Molecule: Oc1ccc([C@H]2Oc3cc(O)cc(O)c3C[C@H]2O)cc1 [epiafzelchin]
- efficiency relative to the activity of SbANR (SbFNR2): 43%

Molecule: O=C1c2c(O)cc(O)cc2O[C@H](c2ccc(O)c(O)c2)[C@H]1O [DHQ, dihydroquercetin]
- Kd (PvDFRa [2]): 16.9 ± 4.35 µM
- ∆H (PvDFRa [2]; ITC): -10.77 ± 0.18 kcal/mol
- ∆S (PvDFRa [2]; ITC): −13.7 Cal mol^−1 K^−1
- substrate inhibition at higher substrate concentrations (PvDFRa WT): substrate inhibition was observed
- increased catalytic efficiency of T143S mutant (PvDFRa T143S): 3.53 fold
- kcat (PvDFRa Q242A): 0.04285 s⁻¹
- kcat (SbDFR3 [5]): 0.06325 s⁻¹
- activity of SbFNR1 against the substrate (SbFNR1 [4]): no significant activity
- activity of SbFNR2 against the substrate (SbFNR2): no significant activity
- activity of SbANR against the substrate (SbANR): no significant activity

Molecule: O=C1c2c(O)cc(O)cc2O[C@H](c2ccc(O)cc2)[C@H]1O [DHK, dihydrokaempferol]
- Kd (PvDFRa [2]): 26.4 ± 2.26 µM
- ∆H (PvDFRa [2]; ITC): -6.19 ± 5.54 kcal/mol
- ∆S (PvDFRa [2]; ITC): 0.854 Cal mol^−1 K^−1
- substrate inhibition at higher substrate concentrations (PvDFRa WT): substrate inhibition was observed
- increased catalytic efficiency of T143S mutant (PvDFRa T143S): 1.09 fold
- kcat (PvDFRa Q242A): 0.007835 s⁻¹
- higher catalytic efficiency of Q242A mutant (PvDFRa Q242A; relative to wild-type PvDFRa): 1.7 fold
- Km (SbDFR3 [5]): 118 ± 22.6 µM
- kcat (SbDFR3 [5]): 0.0101 s⁻¹ and 0.0101 ± 0.00852 s⁻¹
- activity of SbFNR1 against the substrate (SbFNR1 [4]): no significant activity
- activity of SbFNR2 against the substrate (SbFNR2): no significant activity
- activity of SbANR against the substrate (SbANR): no significant activity

Molecule: PvDFRa Q242A (Panicum virgatum; Q242A)
- Km [6]: 156.8 ± 121.41 µM
- kcat [6]: 0.0428 s⁻¹
- kcat/Km [6]: 273 M⁻¹ s⁻¹
- Km [7]: 119.2 ± 87.86 µM
- kcat [7]: 0.0379 s⁻¹
- kcat/Km [7]: 318 M⁻¹ s⁻¹
- Km [8]: 74.59 ± 62.70 µM
- kcat [8]: 0.00783 s⁻¹
- kcat/Km [8]: 105 M⁻¹ s⁻¹

Molecule: Oc1ccc(-c2[o+]c3cc(O)cc(O)c3cc2O)cc1 [pelargonidin]
- efficiency relative to the activity of SbANR (SbFNR1 [4]; anthocyanidin reduction): 2.1%
- efficiency relative to the activity of SbANR (SbFNR2): 42.7%
- activity as % of the activity of SbANR (PvDFRa [9]): 13.8%
- activity as % of the activity of SbANR (SbDFR3 [10]): 2.3%
